The values below come from PMC12562640, “Investigating Amphoteric 3,4′-Biscoumarin-Based ortho-[(Dialkylamino)methyl]phenols as Dual MAO and ChE Inhibitors” (International Journal of Molecular Sciences, 2025).

Data set [1] can be described thus: Hydrolytic stability in aqueous buffers. The settings on record: 0.01 M HCl (pH 2.0) and 0.05 M PBS (pH 7.4), 37 ± 1 °C, 1 h, 100 μM.
Protocol: Sample solutions at 100 μM (DMSO as the cosolvent, 1% v/v) were incubated at 37 ± 1 °C for 1 h, following shaking of the solution on an orbital shaker at 250 rpm and monitoring by RP-HPLC.
In a further data set the target is T1, human huMAO-B (Homo sapiens, UniProt P27338).
T1 construct: purchased Sigma Aldrich; host or cells: insect cells infected with baculovirus (microsomes)
T1 sequence (P27338 1-520): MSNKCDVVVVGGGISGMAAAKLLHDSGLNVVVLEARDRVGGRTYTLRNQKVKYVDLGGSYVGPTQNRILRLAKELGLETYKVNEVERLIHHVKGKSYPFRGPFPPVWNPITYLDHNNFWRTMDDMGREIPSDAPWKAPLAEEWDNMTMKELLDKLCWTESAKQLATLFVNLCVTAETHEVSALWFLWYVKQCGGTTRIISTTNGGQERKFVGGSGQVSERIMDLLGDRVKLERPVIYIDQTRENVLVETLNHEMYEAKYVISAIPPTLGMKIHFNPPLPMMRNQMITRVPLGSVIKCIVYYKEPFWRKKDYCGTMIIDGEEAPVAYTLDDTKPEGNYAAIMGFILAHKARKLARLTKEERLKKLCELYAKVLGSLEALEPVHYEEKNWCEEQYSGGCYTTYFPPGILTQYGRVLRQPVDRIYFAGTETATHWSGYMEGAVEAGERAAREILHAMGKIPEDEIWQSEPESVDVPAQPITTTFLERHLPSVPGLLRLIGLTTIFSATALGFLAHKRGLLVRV
In words: biochemical. The settings on record: for inhibition at 10 µM: at 10 µM concentration, mean ± SD. In kind it is biochemical. The procedure: (§1) The inhibition assays of human monoamine oxidases were conducted using a fluorescence-based method with kynuramine as a non-selective substrate for each isoform, MAO-A/B [44, 45, 46]. Recombinant human MAO-A and MAO-B (microsomes from insect cells infected with baculovirus; Sigma Aldrich, St. Louis, MO, USA) (Merk Life Science S.r.l., Milan, Italy) were used. The measurements were performed in triplicate in black round-bottom polystyrene 96-well plates (Greiner Bio-One, Kremsmünster, Austria). […] In the MAO inhibition assays, all compounds were initially screened at a concentration of 10 µM. Each of them was preincubated at 37 °C for 20 min with 50 µM kynuramine in a phosphate buffer (PBS, 0.1 M, pH 8.0), adjusted to 0.39 osmolarity with KCl. After adding recombinant human MAO-A/B (250 U/mg and 59 U/mg, respectively) and incubating for another 30 min, NaOH was added. The fluorescence was measured at excitation/emission wavelengths of 310/400 nm. […] The IC50 is reported as the mean ± SD of three independent experiments, each performed in duplicate.

The target of data set [2] is T2, human MAO-A (Homo sapiens, UniProt P21397).
T2 construct: purchased Sigma Aldrich; host or cells: insect cells infected with baculovirus (microsomes)
T2 sequence (P21397 1-527): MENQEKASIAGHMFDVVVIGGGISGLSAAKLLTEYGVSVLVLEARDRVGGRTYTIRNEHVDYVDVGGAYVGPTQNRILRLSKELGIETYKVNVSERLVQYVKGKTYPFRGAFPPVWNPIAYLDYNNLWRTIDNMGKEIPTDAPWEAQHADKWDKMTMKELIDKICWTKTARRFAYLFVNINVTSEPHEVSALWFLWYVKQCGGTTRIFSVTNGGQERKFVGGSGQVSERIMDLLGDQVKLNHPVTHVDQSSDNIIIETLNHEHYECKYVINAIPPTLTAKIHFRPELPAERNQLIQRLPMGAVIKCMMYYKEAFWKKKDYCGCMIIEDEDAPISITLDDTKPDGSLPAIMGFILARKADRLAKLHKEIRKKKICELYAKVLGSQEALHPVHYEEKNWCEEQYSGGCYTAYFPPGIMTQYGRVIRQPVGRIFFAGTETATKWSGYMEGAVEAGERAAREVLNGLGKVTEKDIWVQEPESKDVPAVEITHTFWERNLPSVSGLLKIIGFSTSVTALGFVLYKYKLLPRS
In words: biochemical. Type of data set: biochemical. The method, then:
as §1

The target of the next data set is T3, horse serum eqBChE (Equus caballus, UniProt P81908).
T3 construct: Acetylcholinesterase from electric eel and butyrylcholinesterase from equine serum (Sigma Aldrich) were employed; purchased Sigma Aldrich; host or cells: equine serum
T3 sequence (P81908 whole entry): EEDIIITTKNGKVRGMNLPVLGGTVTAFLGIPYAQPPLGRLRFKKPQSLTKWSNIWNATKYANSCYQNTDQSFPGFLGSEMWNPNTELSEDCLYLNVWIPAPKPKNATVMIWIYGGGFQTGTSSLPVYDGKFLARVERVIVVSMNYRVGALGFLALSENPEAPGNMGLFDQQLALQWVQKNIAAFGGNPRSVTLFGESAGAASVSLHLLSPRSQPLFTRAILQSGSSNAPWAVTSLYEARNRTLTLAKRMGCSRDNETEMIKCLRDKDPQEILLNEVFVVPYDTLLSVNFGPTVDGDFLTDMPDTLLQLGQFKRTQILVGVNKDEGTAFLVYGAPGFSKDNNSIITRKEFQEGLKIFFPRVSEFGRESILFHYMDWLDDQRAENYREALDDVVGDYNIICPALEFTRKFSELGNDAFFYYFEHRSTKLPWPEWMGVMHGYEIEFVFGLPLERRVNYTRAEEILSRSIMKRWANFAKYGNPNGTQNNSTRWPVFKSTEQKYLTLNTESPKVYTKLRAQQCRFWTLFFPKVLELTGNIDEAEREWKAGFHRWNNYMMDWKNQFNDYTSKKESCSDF
In words: biochemical. In kind it is biochemical. To be noted: at 10 µM concentration. The procedure:
(§2) Cholinesterase inhibition assays were carried out using the Ellman spectrophotometric method, modified for a 96-well plate format. Acetylcholinesterase from electric eel and butyrylcholinesterase from equine serum (Sigma Aldrich) were employed. The measurements were performed in triplicate using clear, flat-bottom polystyrene plates (Greiner Bio-One).

The target of a further data set is human huAChE (Homo sapiens, UniProt P22303). In words: biochemical. Type of data set: biochemical. The settings on record: for inhibition at 10 µM: at 10 µM concentration, read-out: huAChE inhibition class. The method, then: The inhibition of human huAChE was also evaluated for five compounds.
human huAChE, sequence (P22303 32-614): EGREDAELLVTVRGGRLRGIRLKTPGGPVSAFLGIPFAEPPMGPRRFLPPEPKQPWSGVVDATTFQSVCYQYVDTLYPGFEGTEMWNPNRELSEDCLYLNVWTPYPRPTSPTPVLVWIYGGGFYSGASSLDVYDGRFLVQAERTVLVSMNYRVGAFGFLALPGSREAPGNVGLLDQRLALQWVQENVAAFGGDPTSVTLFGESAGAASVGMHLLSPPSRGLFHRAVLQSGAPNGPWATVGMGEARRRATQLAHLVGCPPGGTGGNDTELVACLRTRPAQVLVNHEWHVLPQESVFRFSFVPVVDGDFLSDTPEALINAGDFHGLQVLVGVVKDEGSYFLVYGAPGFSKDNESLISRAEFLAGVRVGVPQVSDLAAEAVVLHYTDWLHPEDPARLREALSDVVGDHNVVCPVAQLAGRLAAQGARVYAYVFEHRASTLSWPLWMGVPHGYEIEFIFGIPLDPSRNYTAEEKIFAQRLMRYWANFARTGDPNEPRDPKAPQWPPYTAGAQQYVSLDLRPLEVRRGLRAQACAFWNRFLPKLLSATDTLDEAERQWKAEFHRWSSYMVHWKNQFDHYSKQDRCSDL
as §2

In another data set the target is T4, electric eel eeAChE (Electrophorus electricus, UniProt O42275).
T4 construct: Acetylcholinesterase from electric eel and butyrylcholinesterase from equine serum (Sigma Aldrich) were employed; purchased Sigma Aldrich; host or cells: electric eel (natural source)
T4 sequence (O42275 24-633): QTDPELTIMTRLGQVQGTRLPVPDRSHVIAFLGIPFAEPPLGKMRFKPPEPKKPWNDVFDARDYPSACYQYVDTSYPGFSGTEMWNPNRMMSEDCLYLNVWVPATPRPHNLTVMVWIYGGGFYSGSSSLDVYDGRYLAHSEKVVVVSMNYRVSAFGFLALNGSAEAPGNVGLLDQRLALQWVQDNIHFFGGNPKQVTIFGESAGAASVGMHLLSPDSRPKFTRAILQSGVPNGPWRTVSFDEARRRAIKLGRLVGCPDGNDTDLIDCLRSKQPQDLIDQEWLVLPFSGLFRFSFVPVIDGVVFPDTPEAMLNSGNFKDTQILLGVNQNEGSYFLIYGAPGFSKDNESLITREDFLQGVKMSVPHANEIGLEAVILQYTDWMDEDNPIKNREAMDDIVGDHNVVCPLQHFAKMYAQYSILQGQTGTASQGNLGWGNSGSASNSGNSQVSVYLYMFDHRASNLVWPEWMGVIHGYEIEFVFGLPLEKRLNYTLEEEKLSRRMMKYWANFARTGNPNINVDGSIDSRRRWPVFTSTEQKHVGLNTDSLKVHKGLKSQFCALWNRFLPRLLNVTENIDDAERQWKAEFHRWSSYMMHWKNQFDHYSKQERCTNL
As to the kind of experiment: biochemical. The settings on record: for inhibition at 10 µM: at 10 µM concentration, mean ± SD; for IC50: mean ± SD of three independent determinations, ~10 means 50–60% inhibition at 10 µM.

The nature of data set [3]: Lipophilicity by RP-HPLC (log k'w). Type of data set: physicochemical. The settings on record: C18, extrapolated to 100% water mobile phase. The procedure:
The lipophilicity of the five compounds in Table 4 was assessed by calculation and experimental approaches. As a calculated lipophilicity parameter (log Pcalc), we took from the SwissADME free website (http://www.swissadme.ch) the ‘Consensus Log Po/w’, that is, the arithmetic mean of octanol/water log Ps calculated by five methods (iLOGP, XLOGP3, WLOGP, MLOGP, and SILICOS-IT).
The lipophilicity parameters were determined by an RP-HPLC technique. In short, methanolic solutions of the examined compounds (1 mg·mL^−1) were analyzed by the Agilent 1260 infinite HPLC system (Agilent Technologies, Milan, Italy) equipped with a diode array detector (DAD), using a Phenomenex C18-column (Kinetex 5 μ, 100 Å, 150 × 3 mm) as the stationary phase and MeOH/water buffer mobile phases with different v/v composition (i.e., mobile phases containing 0.05 increments of MeOH volume fractions in 10 mM ammonium formate buffer at pH 4.5; φMeOH ranging between 0.70 and 0.20). The chromatographic measurements were carried out at 25 ± 1 °C, flow rate of 0.5 mL·min^−1, and detection at λ 330 nm. The log of capacity factors of each compound at different mobile phase compositions was calculated (log k′ = log (tR − t0)/t0, where tR represents the retention time of the solute and t0 is the column dead time). For each compound, the equation of the linear relationship between log k′ and φMeOH (R^2 > 0.991) on at least five datapoints, each from duplicate, was derived by regression analysis and the intercept at the y-axis (i.e., φMeOH = 0) calculated as the lipophilicity parameter log k′w.

A short description of data set [4]: Kinetic solubility in aqueous buffers (RP-HPLC). To be noted: for solubility at 2 h: PBS buffer, 25 °C, pH 7.4, aqueous buffer, kinetic from dmso stock, read-out: Solubility Exp.; for experimental solubility in PBS pH 7.4, times higher than calculated with the ESOL model: PBS pH 7.4 vs ESOL. In kind it is physicochemical. The procedure:
Water solubility and lipophilicity parameters were measured following previously reported methods. […] The mixture was then separated by centrifugation at 2500 rpm for 3 min. Immediately after filtration, 100 µL of the filtrate was mixed with an equal volume of a 1:1 (v/v) DMSO and PBS (50 mM, pH 7.4, KCl 0.15 M) or HCl (0.01 M, pH 2, KCl 0.15 M) solution to prevent precipitation from the saturated solution and subsequently analyzed by HPLC. The peak area was compared to a calibration curve of the tested compound in MeOH. The analytical parameters were set as follows. Mobile phase: MeOH/water pH 2.8 (acetic acid 0.5% v/v) at different percentages depending on the retention time of each test compound; stationary phase: Phenomenex, Kinetex 5 µ, C8, (150 × 3 mm); flux: […]; injection: 2 µL; λ 330 nm. The analyses were performed on the Agilent HPLC 1260 Infinity Series Integrated System (Agilent Technologies, Milan, Italy).

The target in data set [5] is T2, human MAO-A. In words: Inhibition kinetics and time course of MAO-A inhibition. In kind it is biochemical. An excerpt:
For the sake of clarity, the position of the Mannich base (-CH2NR2) on the main coumarin core will be indicated as C8, whereas the positions of Cl or Br and OMe on the 4-coumarin-3-yl moiety will be indicated as C6′ and C8′.
Time courses of MAO-A inhibition by 2b and 5b, using a spectrophotometric assay measuring the absorbance of 4-
(1 picture or pasted object on this page, not shown here)

The mark [6] stands for this setting: mean ± SD of three independent determinations, ~10 means 50–60% inhibition at 10 µM.
Where [7] appears, read: PBS (50 mM, pH 7.4, 0.15 M KCl) at 25 ± 1 °C, n = 3.
[8] abbreviates: read-out: eqBChE inhibition class.

Values after ≈ are worked out from the molar mass of the structure shown. Values joined by “and” are separate entries in the source; they are usually repeats but may differ in a detail not shown here. Identical values can stand only once. “Also recorded” adds a separate entry of the source. Like-named read-outs stand apart in the source and are kept apart here. A value given as a limit tells only on which side of the number the result lay.

For the compound `CCCCN(C)Cc1c(O)ccc2c(-c3cc4cc(Br)ccc4oc3=O)cc(=O)oc12` [Compound 5c], the hydrolytic stability entry in data set [1] was “stable over 1 h”. For the same compound, the IC50 at human huMAO-B (setting [6]) is ~10 µM. Also, at human MAO-A [2] (setting [6]), the half-maximal inhibitory concentration (IC50) was determined as 2.52 ± 0.7 µM and the “huMAO-A IC50” value is reported as “single-digit micromolar”. Further, the eqBChE % inhibition entry at horse serum eqBChE (mean ± SD) is “[25 ± 11] %”.
In the case of `CN(C)Cc1c(O)ccc2c(-c3cc4cc(Br)ccc4oc3=O)cc(=O)oc12` [Compound 2c, 8-((dimethylamino)methyl)-4-(6-bromo-2-oxo-2H-chromen-3-yl)-7-hydroxy-2H-chromen-2-one], in data set [1], the hydrolytic stability result is reported as “stable over 1 h”. The inhibition at 10 µM is < 10% at human huAChE, 20% at electric eel eeAChE and < 10% on horse serum eqBChE (setting [8]). Moreover, the “Log k’w (polycratic capacity factor)” value in data set [3] is reported as 2.65. Moreover, the IC50 on human huMAO-B was ~10 µM; against human MAO-A [2], 2.23 ± 0.22 µM. In addition, on human MAO-A [2] (setting [6]), the “huMAO-A IC50” value was “single-digit micromolar”. The solubility at 2 h in [4] (setting [7]) came to 141 µM (≈ 62.4 µg/mL). Moreover, the “experimental solubility in PBS pH 7.4, times higher than calculated with the ESOL model” value in [4] is listed as “thirteen”.
Turning to `CN(C)Cc1c(O)ccc2c(-c3cc4ccccc4oc3=O)cc(=O)oc12` [Compound 2a, 8-((dimethylamino)methyl)-4-(2-oxo-2H-chromen-3-yl)-7-hydroxy-2H-chromen-2-one], the figures for the inhibition at 10 µM at electric eel eeAChE, against human huMAO-B and on horse serum eqBChE (setting [8]) were 22%, 36% and < 10%, respectively. In addition, in data set [3], the “Log k’w (polycratic capacity factor)” value was 2.11. Moreover, the midpoint of inhibition at human MAO-A [2], the IC50, lay at 8.3 ± 0.36 µM. Moreover, the solubility at 2 h in [4] (setting [7]) is 183 µM (≈ 66.5 µg/mL). Also, the “experimental solubility in PBS pH 7.4, times higher than calculated with the ESOL model” value in [4] is recorded as “two”.
`CN(C)Cc1c(O)ccc2c(-c3cc4cc(Cl)ccc4oc3=O)cc(=O)oc12` [Compound 2b, 8-((dimethylamino)methyl)-4-(6-chloro-2-oxo-2H-chromen-3-yl)-7-hydroxy-2H-chromen-2-one]: the inhibition at 10 µM at human huAChE and at horse serum eqBChE (setting [8]) was < 10% each time. At human MAO-A [5] (Michaelis–Menten and Lineweaver–Burk plots), the “mode of inhibition of MAO-A” value is “competitive”. Further, the Ki on human MAO-A [5] (human MAO-A, competitive inhibition, read-out: inhibition constant (Ki) MAO-A) was found to be 0.272 µM. At human MAO-A [5] (time course, absorbance of 4-hydroxyquinoline at 316 nm, inhibitor close to IC50), the “reversibility of MAO-A inhibition” value is reported as “reversible”. The IC50 was ~10 µM at electric eel eeAChE, ~10 µM against human huMAO-B and 1.49 ± 0.49 µM on human MAO-A [2]. Further, in data set [3], the “Log k’w (polycratic capacity factor)” value is given as 2.45. For the same compound, the solubility at 2 h in data set [4] (setting [7]) came out at 147 µM (≈ 58.5 µg/mL).
Turning to `CCN(CC)Cc1c(O)ccc2c(-c3cc4cc(Br)ccc4oc3=O)cc(=O)oc12` [Compound 3c, 8-((diethylamino)methyl)-4-(6-bromo-2-oxo-2H-chromen-3-yl)-7-hydroxy-2H-chromen-2-one], the half-maximal inhibitory concentration (IC50) against human huAChE is 4.27 ± 0.58 µM; against electric eel eeAChE, < 10 µM and 1.56 µM; against human MAO-A [2] it was 3.04 ± 1.37 µM. The “Log k’w (polycratic capacity factor)” value in data set [3] is reported as 2.89. The inhibition at 10 µM is 42% against human huMAO-B and 37% at horse serum eqBChE (mean ± SD, read-out: eqBChE % inhibition). Moreover, the “huMAO-A IC50” value on human MAO-A [2] (setting [6]) is reported as “single-digit micromolar”. In data set [4] (setting [7]), the “Solubility Exp.” value is 181 µM (≈ 85.1 µg/mL). The “experimental solubility in PBS pH 7.4, times higher than calculated with the ESOL model” value in [4] is “fifty; also recorded: fiftyfold”. The “water solubility relative to 2c” value in data set [4] (at pH 7.4) came to 1.3 fold.
